Source: patent US12473339B2, “Acylated glucagon analogues” (Zealand Pharma A/S, priority 2013, dated 2025)

Assays:
[1] = target: T1, endogenous GLP-1 receptors (Mus musculus, UniProt O35659); assay: Agonistic activity on endogenous GLP-1 receptor (cAMP, murine insulinoma cell line); assay type: cell-based; conditions: intracellular cAMP, 15 minutes at 26° C.
T1 construct: Agonistic activity of the test compounds on endogenous GLP-1 receptors; endogenous in cells
T1 sequence (O35659 22-463): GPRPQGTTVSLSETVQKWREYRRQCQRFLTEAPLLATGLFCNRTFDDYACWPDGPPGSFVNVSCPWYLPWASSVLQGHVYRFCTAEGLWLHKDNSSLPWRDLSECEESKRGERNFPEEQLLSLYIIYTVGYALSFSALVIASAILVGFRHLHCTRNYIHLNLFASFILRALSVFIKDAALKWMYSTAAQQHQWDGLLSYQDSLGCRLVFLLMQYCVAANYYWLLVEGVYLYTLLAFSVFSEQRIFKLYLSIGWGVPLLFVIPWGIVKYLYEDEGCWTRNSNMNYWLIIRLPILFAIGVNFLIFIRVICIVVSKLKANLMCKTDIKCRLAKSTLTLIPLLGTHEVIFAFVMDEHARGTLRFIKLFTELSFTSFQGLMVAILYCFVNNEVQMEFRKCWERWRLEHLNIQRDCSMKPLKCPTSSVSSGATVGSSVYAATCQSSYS
Method: Agonistic activity of the test compounds on endogenous GLP-1 receptors was determined using a murine insulinoma cell line. Intracellular cAMP was used an indicator of receptor activation.
Cells were cultured for 24 h at a density of 10,000 cells/well in a 384-well plate. Medium was removed and 10 μL KRBH buffer (NaCl 130 mM, KCl 3.6 mM, NaH2PO4 0.5 mM, MgSO4 0.5 mM, CaCl2 1.5 mM) containing test compound or GLP-1 (at increasing concentrations from 0.1 pM to 100 nM) or solvent control (0.1% (v/v) DMSO) was added to the wells for 15 minutes at a temperature of 26° C.
The cellular cAMP content is measured using the AlphaScreen cAMP Functional Assay Kit (Perkin Elmer). Measurement was performed using the Envision (PerkinElmer) according to manufacturer's recommendations.
Results were converted into cAMP concentrations using a cAMP standard curve prepared in KRBH buffer containing 0.1% (v/v) DMSO. The resulting cAMP curves were plotted as absolute cAMP concentrations (nM) over log (test compound concentration) and analyzed using the curve fitting program XLfit. […]

[2] = target: T2, human glucagon-like peptide 1 receptor (GLP-1R) (Homo sapiens, UniProt P43220); assay: GLP-1 receptor efficacy assay (cAMP AlphaScreen, CHO cells); assay type: cell-based; conditions: EC50 [GLP-1R] / EC50 [Glucagon-R], human receptors in CHO-K1
T2 construct: expressed in transfected cells
Outline: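 Stable CHO clones expressing the human receptor, seeded 24 h before assay. Peptides applied for 15 min at room temperature in KRBH with 0.1 mM IBMX; cells lysed and cAMP quantified by AlphaScreen. EC50 and efficacy relative to glucagon or GLP-1 from curve fitting.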

T2 sequence (P43220 24-463): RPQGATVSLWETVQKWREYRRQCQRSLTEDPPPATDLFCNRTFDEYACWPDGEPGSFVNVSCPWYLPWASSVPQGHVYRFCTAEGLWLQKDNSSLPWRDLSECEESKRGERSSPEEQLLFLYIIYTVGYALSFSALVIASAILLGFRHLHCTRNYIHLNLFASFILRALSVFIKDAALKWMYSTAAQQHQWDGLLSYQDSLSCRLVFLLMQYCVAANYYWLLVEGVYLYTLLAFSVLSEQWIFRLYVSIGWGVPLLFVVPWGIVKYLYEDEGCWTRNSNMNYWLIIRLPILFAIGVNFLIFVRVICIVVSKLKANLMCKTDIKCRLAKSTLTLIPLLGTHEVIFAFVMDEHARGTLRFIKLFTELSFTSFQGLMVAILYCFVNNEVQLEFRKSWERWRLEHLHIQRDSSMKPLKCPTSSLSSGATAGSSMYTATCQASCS

| SMILES | EC50 [1] | Ratio GLP-1/Glucagon [2] |
| --- | --- | --- |
| CC[C@H](C)[C@H](NC(=O)[C@H](Cc1ccccc1)NC(=O)[C@H](CC(=O)O)NC(=O)[C@H](CCCCN)NC(=O)[C@H](C)NC(=O)[C@H](C)NC(=O)[C@H](CCCCNC(=O)CC[C@H](NC(=O)CCCCCCCCCCCCCCCCC(=O)O)C(=O)O)NC(=O)[C@H](CCC(=O)O)NC(=O)[C@H](CC(=O)O)NC(=O)[C@H](CC(C)C)NC(=O)[C@H](Cc1ccc(O)cc1)NC(=O)[C@H](CCCCN)NC(=O)[C@H](CO)NC(=O)[C@H](Cc1ccc(O)cc1)NC(=O)[C@H](CC(=O)O)NC(=O)[C@H](CO)NC(=O)[C@@H](NC(=O)[C@H](Cc1ccccc1)NC(=O)[C@@H](NC(=O)CNC(=O)[C@H](CCC(N)=O)NC(=O)C(C)(C)NC(=O)[C@@H](N)Cc1c[nH]cn1)[C@@H](C)O)[C@@H](C)O)C(=O)N[C@@H](CCC(=O)O)C(=O)N[C@@H](Cc1c[nH]c2ccccc12)C(=O)N[C@@H](CC(C)C)C(=O)N[C@@H](CCC(=O)O)C(=O)N[C@@H](CO)C(=O)N[C@@H](C)C(N)=O [Compound 10, H-H-Aib-QGTFTSDYSKYLDE-K([17-carboxy-heptadecanoyl]-isoGlu)-AAKDFIEWLESA-NH2] | 600 pM | 0.38 |
| CC(C)C[C@H](NC(=O)[C@H](CC(C)C)NC(=O)[C@H](Cc1c[nH]c2ccccc12)NC(=O)[C@H](CCC(=O)O)NC(=O)[C@@H](NC(=O)[C@H](Cc1ccccc1)NC(=O)[C@H](CC(=O)O)NC(=O)[C@H](Cc1c[nH]cn1)NC(=O)[C@H](C)NC(=O)[C@H](C)NC(=O)[C@H](CCCCNC(=O)CC[C@H](NC(=O)CCCCCCCCCCCCCCC(=O)O)C(=O)O)NC(=O)[C@H](CO)NC(=O)[C@H](CC(=O)O)NC(=O)[C@H](CC(C)C)NC(=O)[C@H](Cc1ccc(O)cc1)NC(=O)[C@H](CCCCN)NC(=O)[C@H](CO)NC(=O)[C@H](Cc1ccc(O)cc1)NC(=O)[C@H](CC(=O)O)NC(=O)[C@H](CO)NC(=O)[C@@H](NC(=O)[C@H](Cc1ccccc1)NC(=O)[C@@H](NC(=O)CNC(=O)[C@H](CCC(N)=O)NC(=O)C(C)(C)NC(=O)[C@@H](N)Cc1c[nH]cn1)[C@@H](C)O)[C@@H](C)O)C(C)C)C(=O)N[C@@H](CO)C(=O)N[C@@H](C)C(N)=O [Compound 1, H-H-Aib-QGTFTSDYSKYLDS-K([15-carboxy-pentadecanoyl]-isoGlu)-AAHDFVEWLLSA-NH2] | 600 pM | 1.81 |
